In patent US20150283127A1, “SAQUINAVIR-NO FOR IMMUNOMODULATION” (ONCONOX APS, priority 2012, published 2015):
Marks after values point to notes of the source that are not given here.

Experiments:
[1] = tested on: murine SPC; experiment: Cytokine generation (ELISA) in ConA-stimulated murine SPC; type: cell-based, mouse; details: for Effects on cytokines at low concentrations: unfractionated spleen cells and/or purified murine CD4 T cells, concentrations of 2.5 and 5 mM
Description: (§1) Experimental animals (C57BL/6 mice, BALB/c mice and Dark Agouti rats) were obtained from the Animal House Facility of the Institute for Biological Research “Sinisa Stanković”, Belgrade, Serbia. Spleen cells (SPC) were isolated from murine spleens and lymph node cells (LNC) were obtained from rat cervical lymph nodes of untreated animals. Draining lymph node cells (DLNC) were obtained from popliteal lymph nodes 8-10 days after immunization of rats with myelin basic protein (guinea pig MBP, kind gift from professor Alexander Fluegel, University of Goettingen, Germany) and complete Freund's adjuvant (CFA, Difco, Detroit, Mich.). The organs were mechanically disrupted, passed through 40-μm nylon mesh filter and the resulting suspension was collected by centrifugation. Red blood cells from single cell suspensions obtained from spleens were lysed using RBC Lysis Buffer (eBioscience, San Diego, Calif.). CD4+ cells were purified from SPC using biotin conjugated antibody specific for CD4 (eBioscience) and IMag SAv particles plus (BD Biosciences, San Diego, Calif.). Obtained purity of CD4 population was more than 97% as determined by flow cytometry. SPC and LNC were seeded at 5×10^6/ml/well, DLNC at 2.5×10^6/ml/well and CD4+ cells at 1×10^6/ml/well of 24-well plates. Cells infiltrating spinal cords (SC) were obtained from SC of rats immunized with MBP+CFA at the time when rats suffered from severe clinical signs of experimental autoimmune encephalomyelitis (EAE). Rats were perfused with sterile PBS, SC were homogenized, adjusted to 30% Percoll (Sigma-Aldrich) and overlaid on 70% Percoll gradient. Following centrifugation at 870 g for 50 min the SC cells (SCC) were recovered from the […] Percoll interface and washed in RPMI-1640 medium. SCC were seeded at 0.5×106/200 μl/well of 96-well plates. SPC and LNC were stimulated with 2.5 μg/ml concanavalin A (ConA, Sigma-Aldrich), DLNC with MBP (10 ng/ml), CD4+ cells with anti-CD3 and anti-CD28 antibody (1 μg/ml each, both from eBioscience) and SCC were left untreated.
Cytokine concentration in cell culture supernatants was determined by sandwich ELISA using MaxiSorp plates (Nunc, Rochild, Denmark) and anti-cytokine paired antibodies according to the manufacturer's instructions. Samples were analyzed in duplicate for murine/rat IL-17, murine IL-10, murine TNF, murine IL-4 (eBioscience), murine IFN-γ, rat IFN-γ, rat IL-4 (R&D, Minneapolis, Minn.), rat IL-10 and rat TNF (BD Biosciences). The results were calculated using standard curves made on the basis of known concentrations of the appropriate recombinant cytokines.
In order to investigate the potential of Saq-NO to modulate cytokine production in immune cells, rat LNC were stimulated with ConA in the presence of various concentrations of Saq-NO for 24 hours and the levels of IFN-g, IL-4, IL-17, IL-10 and TNF were determined in cell-free culture supernatants. […] Effects of Saq-NO on the cytokine generation were examined in murine SPC, as well. Here, Saq-NO was applied in parallel with Saq and their influence on the cytokine generation and cell viability was compared. Further, two strains of mice were used, i.e. BALB/c and C57BL/6 mice which are prototypical Th2 and Th1 mice, respectively (Lohoff et al., 1998). […] Moreover, the influence of Saq-NO on the cytokines was evident with concentrations of the agent that had no effect on SPC viability (FIG. 2).

[2] = tested on: murine SPC; experiment: Apoptosis in murine SPC, Annexin V-FITC staining and cytofluorimetry; type: cell-based, mouse
Description: as §1
The cells positive for Annexin V-FITC were considered apoptotic. The stained cells were acquired by a FACSCalibur cytometer (BD Biosciences) and analyzed using CellQuest Software (BD Biosciences).

[3] = tested on: MOG-induced EAE; experiment: MOG-induced EAE in C57Bl6 mice; type: in vivo; details: for Clinical course of the disease: day 7 to 30; for Disease after interruption of the late prophylactic treatment: observed for further 11 days
Description: Seven to 8 weeks-old male C57Bl6 mice and 6 to 7 weeks-old female SJL mice (Harlan Laboratories srl, San Pietro al Natisone, Udine, Italy) were used in the experiments. They were kept under standard laboratory conditions (non specific pathogen free) with free access to food (Harlan Global Diet 2018) and water and were allowed to adapt at least one week to their environment before commencing the study.
MOG35-55 was synthesized by Genemed synthesis (San Francisco Calif.). The mice were immunized with 200 μg MOG emulsified in CFA with 1 mg of Mycobacterium tuberculosis H37RA (Difco, Detroit, Mich., USA) to make a 1:1 emulsion. Each mouse received subcutaneous injections of 200 μl emulsion divided among two sites draining into the axillary lymph nodes. Pertussis toxin (Calbiochem, Nottingham, UK) was used as a coadjuvant and was administered i.p. at the dose of 200 ng/mouse on day 0 and 2 post immunization. The mice were observed every day by measuring their body weights and clinical signs of EAE until 30 days after immunization. These clinical grading were carried out by an observer unaware of the treatment: 0=no sign of disease; 0.5=partial tail paralysis; 1=tail paralysis; 1.5=tail paralysis+partial unilateral hindlimb paralysis; 2=tail paralysis+hindlimb weakness or partial hindlimb paralysis; 2.5=tail paralysis+partial hindlimb paralysis (lowered pelvi); 3=tail paralysis+complete hindlimb paralysis; 3.5=tail paralysis+complete hindlimb paralysis+incontinence; 4=tail paralysis+hindlimb paralysis+weakness or partial paralysis of forelimbs; 5=moribund or dead.
The study involved 4 groups of 10 animals each. All the groups were immunized with the MOG35-55 peptide in CFA and pertuxis toxin, according to the immunization procedure described above and assigned to the following treatments:
The late prophylactic treatment started on day 7 immunization and continued until day 30; the therapeutic regime started at the onset of the disease and continued for 23 consecutive days.

[4] = mice subjected to the treatment; cited from earlier work
[5] = tested on: DLNC; experiment: Viability of rat DLNC (MTT); type: cell-based; details: DLNC restimulated with MBP
Description: Experimental animals (C57BL/6 mice, BALB/c mice and Dark Agouti rats) were obtained from the Animal House Facility of the Institute for Biological Research “Sinisa Stanković”, Belgrade, Serbia. Spleen cells (SPC) were isolated from murine spleens and lymph node cells (LNC) were obtained from rat cervical lymph nodes of untreated animals. Draining lymph node cells (DLNC) were obtained from popliteal lymph nodes 8-10 days after immunization of rats with myelin basic protein (guinea pig MBP, kind gift from professor Alexander Fluegel, University of Goettingen, Germany) and complete Freund's adjuvant (CFA, Difco, Detroit, Mich.). The organs were mechanically disrupted, passed through 40-μm nylon mesh filter and the resulting suspension was collected by centrifugation. […] Obtained purity of CD4 population was more than 97% as determined by flow cytometry. […]
In order to assess the viability of SPC, LNC, DLNC and SCC by mitochondrial activity assay we used the mitochondrial-dependent reduction of 3-(4,5-dimethylthiazol-2-yl)-2,5-[…] bromide (MTT) to formazan. […] The absorbances in MTT assay were measured at […], with a correction at 690 nm, using an automated microplate reader (LKB 5060-006, LKB, Vienna, Austria).
Next, we determined the influence of Saq-NO on encephalitogen-specific generation of IFN-g and IL-17. […]

[6] = late prophylactic treatment, 10 mg/Kg i.p. daily

Compound | Effects on cytokines at low concentrations [1] | % of AnnV+ cells ([2]; C 5 μg/ml) | % of AnnV+ cells ([2]; C 10 μg/ml) | % of AnnV+ cells ([2]; C 20 μg/ml) | Clinical course of the disease [3, 6] | Disease after interruption of the late prophylactic treatment [3] | Toxicity in mice [4] | Production of IFN-g, IL-4, IL-17, TNF ([1]; murine SPC) | Production of IL-10 ([1]; murine SPC) | Effect on the release of IFN-g, IL-4, IL-17, IL-10 and TNF, compared with Saq ([1]; murine SPC of BALB/c and C57BL/6 mice, ConA) | DLNC viability [5] | Cumulative score and duration of the disease compared to vehicle treated mice ([3]; full therapeutic regime, 10 mg/Kg i.p. daily from onset, 23 days) | Time after treatment interruption to reach the clinical score of vehicle treated mice ([3]; late prophylactic treatment interrupted) | Cumulative score and duration of the disease compared to vehicle treated mice [3, 6]
CC(C)(C)NC(=O)[C@@H]1C[C@@H]2CCCC[C@@H]2CN1C[C@@H](O)[C@H](Cc1ccccc1)NC(=O)[C@H](CC(N)=O)NC(=O)c1ccc2ccccc2n1 [Saq, (2S)—N-[(2S,3R)-4-[(3S)-3-(tert-butylcarbamoyl)-decahydroisoquinolin-2-iy]-3-hydroxy-1-phenylbutan-2-il]-2-(quinolin-2-ylformamido)butanediamide, reference compound] | No effects | 27.5 +/− 4.8% | 31.6 +/− 6.4% | 49.8 +/− 4.8* % | slightly reduced | maintained the same severity of the disease | – | – | – | – | – | – | – | –
CC(C)(C)NC(=O)C1C[C@@H]2CCCC[C@@H]2CN1CC(O[N+](=O)[O-])[C@H](Cc1ccccc1)NC(=O)C(CC(N)=O)NC(=O)c1ccc2ccccc2n1 (some centres unmarked) [Saq-NO, nitric ester of Saquinavir] | already observable | 30.2 +/− 7.5% | 38.4 +/− 4.8% | 44.5 +/− 11.5% | ameliorated | developed a strong disease | no toxicity | inhibited | stimulated | more profound effect | much less than its influence on IFN-g and IL-17 production | significant reduction | ≤ 9 days | significantly lower
